IC50 data for 15 compounds are collected here from US20150299143A1, “SUBSTITUTED TRIAZOLE AND IMIDAZOLE COMPOUNDS” (HOFFMANN-LA ROCHE INC., priority 2012, published 2015).

SMILES strings stand for the structures.

For assay [1], the target named is T1, β 5i (chymotrypsin-like activity) (Homo sapiens, UniProt P20618+P28062).
T1 construct: protease activity associated with the proteasome complex in cultured cells; endogenous in cells; host or cells: Ramos cells
Description: Cell-Based Proteasome subunit activity/selectivity assay, β5i, substrate (ANW)2Rh110. As to conditions: Ramos cells; substrate (ANW)2Rh110 (β5i); highest concentration tested 20 μM; read-out: Ic50:ramos:ac-(anw)2-r110. In short, it runs like this: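 Cell-based fluorogenic assay measuring chymotrypsin-like β5i proteasome activity using the substrate (ANW)2Rh110. Cultured cells received 0.5 μl of 100× 4-fold serial diluted compounds or DMSO per well, were incubated 30 minutes at 37° C, then equilibrated 15 minutes at room temperature. After shaking one minute @ 700 rpm and 120 min room-temperature incubation, fluorescence was read at 500 nm excitation/519 nm emission on an Envision reader.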

A further assay has as its target T2, β 1c (caspase-like) (Homo sapiens, UniProt P28072+Q99436).
T2 construct: protease activity associated with the proteasome complex in cultured cells; endogenous in cells; host or cells: Ramos cells
Description: Cell-Based Proteasome subunit activity/selectivity assay, β1c, substrate (LLE)2Rh110. The note with it: Ramos cells; substrate (LLE)2Rh110 (β1c); highest concentration tested 20 μM; read-out: Ic50:ramos:rh110-(lle)2. Summed up: (§1)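 Subunit activity in cultured cells read with subunit-selective fluorogenic Rh110 substrates: (LLE)2 for β1c, (PAL)2 for β1i, (KQL)2 for β2c/2i, (WLA)2 for β5c. Cells exposed to 4-fold serially diluted compound (top 20 μM) 30 min at 37 °C, then substrate 120 min at room temperature; fluorescence 500/519 nm.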

A further assay concerns β 2c/2i (trypsin-like). Description: Cell-Based Proteasome subunit activity/selectivity assay, β2c/2i, substrate (KQL)2Rh110. The note with it: Ramos cells; substrate (KQL)2Rh110 (β2c/2i); highest concentration tested 20 μM. In short, it runs like this:
as §1

The target of a further assay is T3, β 1i (caspase-like) (Homo sapiens, UniProt P28065+P40306).
T3 construct: protease activity associated with the proteasome complex in cultured cells; endogenous in cells; host or cells: Ramos cells
Description: Cell-Based Proteasome subunit activity/selectivity assay, β1i, substrate (PAL)2Rh110. As to conditions: Ramos cells; substrate (PAL)2Rh110 (β1i); highest concentration tested 20 μM; read-out: Ic50:ramos:rh110-(pal)2. In short, it runs like this: as §1

The target in assay [2] is T4, β5c (chymotrypsin-like activity) (Homo sapiens, UniProt P20618+P28074).
T4 construct: protease activity associated with the proteasome complex in cultured cells; endogenous in cells; host or cells: Ramos cells
Description: Cell-Based Proteasome subunit activity/selectivity assay, β5c, substrate (WLA)2Rh110. The note with it: Ramos cells; substrate (WLA)2Rh110 (β5c); highest concentration tested 20 μM; read-out: Ic50:ramos:rh110-(wla)2. Summed up:
as §1

With `COc1ccc(C(C#N)NC(=O)c2cn(CCNC(=O)c3ccc(OC)c(OC)c3OC)nn2)cc1` (stereo not drawn) [Example 8, 1-[2-(2,3,4-Trimethoxy-benzoylamino)-ethyl]-1H-[1,2,3]triazole-4-carboxylic acid [cyano-(4-methoxy-phenyl)-methyl]-amide], the IC50 in assay [1] was 0.423 µM; at β 1c (caspase-like), not below 20 µM; with β 2c/2i (trypsin-like), not below 20 µM; on β 1i (caspase-like) it was not below 20 µM; in assay [2], not below 20 µM.
Consider `CCOc1ccc(C(=O)NCCn2cc(C(=O)NC(C#N)c3ccc(CC)cc3)nn2)nc1` (stereo not drawn) [Example 28, 5-Ethoxy-pyridine-2-carboxylic acid [2-(4-{[cyano-(4-ethyl-phenyl)-methyl]-carbamoyl}-[1,2,3]triazol-1-yl)-ethyl]-amide], for which the IC50 in assay [1] was 0.933 µM; at β 1c (caspase-like), not below 20 µM; with β 2c/2i (trypsin-like), not below 20 µM; at β 1i (caspase-like), not below 20 µM; in assay [2], 13.3 µM.
Take `COc1ccc(C(=O)NCCn2cc(C(=O)NC(C#N)c3ccc(SC)cc3)nn2)c(OC)c1OC` (stereo not drawn) [Example 2, 1-[2-(2,3,4-Trimethoxy-benzoylamino)-ethyl]-1H-[1,2,3]triazole-4-carboxylic acid [cyano-(4-methylsulfanyl-phenyl)-methyl]-amide]: the IC50 in assay [1] is 0.15 µM; on β 1c (caspase-like) it was not below 20 µM; with β 2c/2i (trypsin-like) it was not below 20 µM; on β 1i (caspase-like), not below 20 µM; in assay [2], not below 20 µM.
Take `CCc1ccc(C(C#N)NC(=O)c2cn(CCNC(=O)c3ccc(OC)c(OC)c3OC)nn2)cc1` (single isomer, unassigned) [Example 50]: the IC50 in assay [1] was 0.058 µM; on β 1c (caspase-like) it was not below 20 µM; in the assay on β 2c/2i (trypsin-like), not below 20 µM; on β 1i (caspase-like) it was not below 20 µM; in assay [2] it was not below 20 µM.
As for `CC(CCc1ccccc1)NC(=O)c1cn(CCNC(=O)c2ccc(C(F)(F)F)cc2F)nn1` (stereo not drawn) [Example 79, 1-[2-(2-Fluoro-4-trifluoromethyl-benzoylamino)-ethyl]-1H-[1,2,3]triazole-4-carboxylic acid (1-methyl-3-phenyl-propyl)-amide], the 50% inhibitory concentration (IC50) was 0.159 µM in assay [1]; not below 20 µM at β 1c (caspase-like); not below 20 µM with β 2c/2i (trypsin-like); 0.976 µM on β 1i (caspase-like); 3.39 µM in assay [2].
Consider `COc1ccc(C(=O)NCCn2cc(C(=O)NC(C#N)c3ccc(C)cc3)nn2)c(OC)c1OC` (stereo not drawn) [Example 62, 1-[2-(2,3,4-Trimethoxy-benzoylamino)-ethyl]-1H-[1,2,3]triazole-4-carboxylic acid (cyano-p-tolyl-methyl)-amide], for which the IC50 was 0.404 µM in assay [1]; not below 20 µM on β 1c (caspase-like); not below 20 µM in the assay with β 2c/2i (trypsin-like); not below 20 µM on β 1i (caspase-like); not below 20 µM in assay [2].
`CCc1ccc(C(C#N)NC(=O)c2cn(CCNC(=O)c3ccc(Oc4ccc(Cl)cc4)cn3)nn2)cc1` (stereo not drawn) [Example 43, 5-(4-Chloro-phenoxy)-pyridine-2-carboxylic acid [2-(4-{[cyano-(4-ethyl-phenyl)-methyl]-carbamoyl}-[1,2,3]triazol-1-yl)-ethyl]-amide]: the half-maximal inhibitory concentration (IC50) is 1.43 µM in assay [1]; not below 20 µM on β 1c (caspase-like); not below 20 µM in the assay on β 2c/2i (trypsin-like); not below 20 µM on β 1i (caspase-like); 6.21 µM in assay [2].
For `CCc1ccc(C(C#N)NC(=O)c2cn(CCNC(=O)c3ccc(OC)c(OC)c3OC)nn2)cc1` (stereo not drawn) [Example 1, 1-[2-(2,3,4-Trimethoxy-benzoylamino)-ethyl]-1H-[1,2,3]triazole-4-carboxylic acid [cyano-(4-ethyl-phenyl)-methyl]-amide], the IC50 was 0.08 µM in assay [1]; not below 20 µM on β 1c (caspase-like); not below 20 µM in the assay on β 2c/2i (trypsin-like); not below 20 µM at β 1i (caspase-like); not below 20 µM in assay [2].
On to `CCc1ccc(C(C#N)NC(=O)c2cn(CCNC(=O)c3ccc(C(F)(F)F)cc3OC)cn2)cc1` (stereo not drawn) [Example 92, 1-[2-(2-Methoxy-4-trifluoromethyl-benzoylamino)-ethyl]-1H-imidazole-4-carboxylic acid [cyano-(4-ethyl-phenyl)-methyl]-amide], for which the 50% inhibitory concentration (IC50) in assay [1] is 0.996 µM; on β 1c (caspase-like), 18.3 µM; in the assay on β 2c/2i (trypsin-like), not below 20 µM; on β 1i (caspase-like) it was not below 20 µM; in assay [2], not below 20 µM.
Turning to `CCc1ccc(C(C#N)NC(=O)c2cn(CCNC(=O)C3=C(C)c4ccccc4C3)nn2)cc1` (stereo not drawn) [Example 25, 1-{2-[(3-Methyl-1H-indene-2-carbonyl)-amino]-ethyl}-1H-[1,2,3]triazole-4-carboxylic acid [cyano-(4-ethyl-phenyl)-methyl]-amide], the IC50 in assay [1] is 0.072 µM; at β 1c (caspase-like), not below 20 µM; with β 2c/2i (trypsin-like), not below 20 µM; on β 1i (caspase-like), not below 20 µM; in assay [2], not below 20 µM.
On to `CCc1ccc(C(C#N)NC(=O)c2cn(CCNC(=O)c3cc(C(F)(F)F)ccc3F)nn2)cc1` (stereo not drawn) [Example 37, 1-[2-(2-Fluoro-5-trifluoromethyl-benzoylamino)-ethyl]-1H-[1,2,3]triazole-4-carboxylic acid [cyano-(4-ethyl-phenyl)-methyl]-amide], for which the IC50 is 0.071 µM in assay [1]; not below 20 µM on β 1c (caspase-like); not below 20 µM with β 2c/2i (trypsin-like); not below 20 µM at β 1i (caspase-like); not below 20 µM in assay [2].
As for `COc1ccc(C(=O)NCCn2cc(C(=O)NC(C#N)c3ccc(C(C)C)cc3)nn2)c(OC)c1OC` (stereo not drawn) [Example 61, 1-[2-(2,3,4-Trimethoxy-benzoylamino)-ethyl]-1H-[1,2,3]triazole-4-carboxylic acid [cyano-(4-isopropyl-phenyl)-methyl]-amide], the IC50 in assay [1] was 1.31 µM; at β 1c (caspase-like), 17.1 µM; in the assay with β 2c/2i (trypsin-like) it was not below 20 µM; at β 1i (caspase-like), not below 20 µM; in assay [2], not below 20 µM.
As to `CCc1ccc(C(C#N)NC(=O)c2cn(CCNC(=O)c3ccc(OC)nc3OC)nn2)cc1` (stereo not drawn) [Example 35, N-[2-(4-{[Cyano-(4-ethyl-phenyl)-methyl]-carbamoyl}-[1,2,3]triazol-1-yl)-ethyl]-2,6-dimethoxy-nicotinamide], the 50% inhibitory concentration (IC50) in assay [1] is 0.491 µM; on β 1c (caspase-like) it was not below 20 µM; in the assay with β 2c/2i (trypsin-like) it was not below 20 µM; at β 1i (caspase-like), not below 20 µM; in assay [2], 5.49 µM.
For the compound `CCc1ccc(C(C#N)NC(=O)c2cn(CCNC(=O)c3ccc(Cl)cc3F)nn2)cc1` (stereo not drawn) [Example 31, 1-[2-(4-Chloro-2-fluoro-benzoylamino)-ethyl]-1H-[1,2,3]triazole-4-carboxylic acid [cyano-(4-ethyl-phenyl)-methyl]-amide], the IC50 in assay [1] was 0.134 µM; on β 1c (caspase-like), not below 20 µM; with β 2c/2i (trypsin-like), not below 20 µM; at β 1i (caspase-like), not below 20 µM; in assay [2] it was 16.1 µM.
With `COc1ccc(C(=O)NCCn2cc(C(=O)NCc3ccc(C)c(C)c3)nn2)c(OC)c1OC` [Example 4, 1-[2-(2,3,4-Trimethoxy-benzoylamino)-ethyl]-1H-[1,2,3]triazole-4-carboxylic acid 3,4-dimethyl-benzylamide], the IC50 in assay [1] is 4.11 µM; at β 1c (caspase-like), not below 20 µM; in the assay with β 2c/2i (trypsin-like), not below 20 µM; at β 1i (caspase-like), not below 20 µM; in assay [2], not below 20 µM.

Usually IC50 stands for the concentration at which inhibition is half-maximal.
